Reference: patent US20070157323A1, “In vivo odorant receptor systems and their uses” (priority 2003, published 2007)

Tests used:
[1] = test system: Glossina morsitans morsitans; details: Vale et al., 1988; cited from earlier work
AgOr2 = target: T1, AgOr2 (Anopheles gambiae, UniProt Q8WTE6); assay: Single-unit electrophysiology of Drosophila ab3A neuron (Δhalo) expressing AgOr2; type: in vivo; details: liquid odors diluted 10^−4, solid odors 0.2 mg/ml in paraffin oil, 0.5 s pulse, FIG. 1b
T1 construct: expressed in transfected cells; host or cells: Transgenic Drosophila, ab3A olfactory receptor neuron lacking Or22a/Or22b (Δhalo), GAL4-UAS
T1 sequence (Q8WTE6 1-378): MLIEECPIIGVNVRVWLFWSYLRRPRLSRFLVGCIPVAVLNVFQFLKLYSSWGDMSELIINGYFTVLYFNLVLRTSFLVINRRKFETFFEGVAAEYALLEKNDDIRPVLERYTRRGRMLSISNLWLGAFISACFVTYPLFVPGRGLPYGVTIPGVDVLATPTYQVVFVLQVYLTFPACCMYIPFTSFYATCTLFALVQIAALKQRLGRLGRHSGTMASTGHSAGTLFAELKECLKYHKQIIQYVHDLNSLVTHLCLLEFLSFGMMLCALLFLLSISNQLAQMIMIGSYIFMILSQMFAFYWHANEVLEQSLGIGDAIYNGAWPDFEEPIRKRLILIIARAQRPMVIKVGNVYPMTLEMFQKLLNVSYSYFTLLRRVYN
T1 sequence (Q9VNB5 1-486 partner): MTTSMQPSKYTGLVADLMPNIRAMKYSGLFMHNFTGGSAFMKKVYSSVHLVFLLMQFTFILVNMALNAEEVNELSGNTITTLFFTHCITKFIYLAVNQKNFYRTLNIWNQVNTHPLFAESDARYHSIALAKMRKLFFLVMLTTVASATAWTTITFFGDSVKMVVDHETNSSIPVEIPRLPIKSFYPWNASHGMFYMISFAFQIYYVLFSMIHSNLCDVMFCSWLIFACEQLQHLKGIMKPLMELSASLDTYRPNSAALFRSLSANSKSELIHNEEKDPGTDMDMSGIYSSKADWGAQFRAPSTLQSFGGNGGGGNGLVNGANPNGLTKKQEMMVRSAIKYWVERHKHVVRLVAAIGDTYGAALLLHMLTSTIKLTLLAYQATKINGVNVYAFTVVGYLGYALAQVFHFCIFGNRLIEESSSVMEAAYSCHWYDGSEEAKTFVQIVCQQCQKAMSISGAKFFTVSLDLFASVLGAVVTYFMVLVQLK
Method: (§1) In summary, odorant receptors are introduced specifically into Δab3A using the GAL4/UAS system and Or22a-GAL4 is used to drive expression from a UAS-Or construct. The odorant response of the neuron (Δab3A:OrX) is assayed electrophysiologically.
(§2) To investigate the function of the A. gambiae odorant receptor genes AgOr1 and AgOr2 directly, these genes were expressed in the Drosophila olfactory receptor neuron that lacks odor response due to the deletion of its endogenous receptor genes, Or22a and Or22b using an Or22a promoter and the GAL4-UAS system.
(§3) AgOr1 and AgOr2 were expressed in the Δhalo background using the GAL4-UAS system. Specifically AgOr1 or AgOr2 was placed under the control of a UAS and expressed using the 22a-GAL4 driver so as to drive its expression in ab3A cells. […]
(§4) Action potentials of the ORNs in a sensillum were recorded by placing an electrode through the sensillum wall into contact with the lymph that bathes the dendrites. […] Recordings were analyzed offline in IGOR-Pro (WaveMetrics, Lake Oswego, Oreg.).
(§5) Odor stimuli were presented from Pasteur pipettes holding solutions of chemicals in paraffin oil on filter paper. […] Responses of the ab3A neurons were quantified by subtracting the number of impulses (i.e., spikes) in 500 ms of spontaneous activity from the number in the 500 ms after the onset of odor stimulation (FIG. 1).

AgOr1 = target: T2, AgOr1 (Anopheles gambiae, UniProt Q8WTE7); assay: Single-unit electrophysiology of Drosophila ab3A neuron (Δhalo) expressing AgOr1; type: in vivo; details: liquid odors diluted 10^−4, solid odors 0.2 mg/ml in paraffin oil, 0.5 s pulse, FIG. 1a
T2 construct: expressed in transfected cells; host or cells: Transgenic Drosophila, ab3A olfactory receptor neuron lacking Or22a/Or22b (Δhalo), GAL4-UAS
T2 sequence (Q8WTE7 1-417): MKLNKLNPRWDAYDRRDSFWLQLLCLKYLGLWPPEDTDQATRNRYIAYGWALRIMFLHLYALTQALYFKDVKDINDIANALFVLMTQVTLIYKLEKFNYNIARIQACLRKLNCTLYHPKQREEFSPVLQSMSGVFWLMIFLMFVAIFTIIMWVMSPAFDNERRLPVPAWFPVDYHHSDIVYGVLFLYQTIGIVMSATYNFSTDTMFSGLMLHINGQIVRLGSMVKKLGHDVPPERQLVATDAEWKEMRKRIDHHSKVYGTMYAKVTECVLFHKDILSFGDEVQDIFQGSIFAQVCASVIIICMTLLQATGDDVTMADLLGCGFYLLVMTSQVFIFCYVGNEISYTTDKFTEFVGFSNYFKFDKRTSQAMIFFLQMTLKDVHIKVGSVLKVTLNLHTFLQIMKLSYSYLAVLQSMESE
T2 sequence (Q9VNB5 1-486 partner): T1 sequence (Q9VNB5 1-486 partner)
Method: as §1, §2, §3, §4, §5

Structure (SMILES): Cc1ccc(O)cc1 [4-methylphenol]
- effectiveness of traps for the tsetse fly [1]: increase the effectiveness of traps
- odor response conferred by AgOr2 (AgOr2): not
- odor response of mutant flies expressing AgOr1 (AgOr1): strong response
